This note sets out measurements from US7902363B2, “Diimide-based semiconductor materials and methods of preparing and using the same” (Polyera Corporation, priority 2006, dated 2011).

The nature of data set [1]: Solubility data in organic common solvents. It counts as physicochemical. To be noted: comparison in words. The source says: Solubility data were obtained for compounds of the present teachings in various organic common solvents (Table 3). N,N′-bis(4-n-octyl)-1,7-dicyanoperylene-3,4:9,10-bis(dicarboxiamide) (PDI8-CN2) was included as a comparative compound.
A short description of data set [2]: Solubility of isolated product in common organic solvents (noted at work-up). Format: physicochemical. To be noted: product after cyanation. As to the method: A mixture of N,N′-bis[4-(2′,3′,4′,5′,6′-pentafluorobiphenyl)]-1,7-dibromoperylene-3,4:9,10-bis(dicarboxiamide) (0.21 g, 0.203 mmol) and CuCN (0.33 g, 3.69 mmol) in DMF (10 mL) was deaerated and placed under nitrogen. The reaction mixture was heated at 150° C. for 9 hours. After cooling to room temperature, the precipitate was collected by filtration, washed several times with MeOH, and dried overnight. The product (0.11 g, 0.12 mmol, 59.1% yield) was insoluble in common organic solvents and it was gradient-sublimed.
A mixture of N,N′-bis(4-benzoylphenyl)-1,7-dibromoperylene-3,4:9,10-bis(dicarboxiamide) (0.60 g, 0.66 mmol) and CuCN (1.07 g, 12.0 mmol) in DMF (27 mL) was deaerated and placed under nitrogen. The reaction mixture was heated at 150° C. for 6 hours. After cooling to room temperature, the precipitate was collected by filtration, washed several times with MeOH, and dried overnight. The crude solid (0.42 g) was insoluble in common organic solvents.

With `CC(C)=CCC[C@H](C)CCN1C(=O)c2ccc3c4c(C#N)cc5c6c(ccc(c7c(C#N)cc(c2c37)C1=O)c64)C(=O)N(CC[C@@H](C)CCC=C(C)C)C5=O` [PDICitr-CN2, N,N′-bis[(3S)-3,7-dimethyl-6-octenyl]-1,7-dicyanoperylene-3,4:9,10-bis(dicarboxiamide)], the “solubility compared to PDI8-CN2 and the other compounds of Table 3” value in data set [1] is “unexpected increase in solubility”. As for `N#Cc1cc2c3c(ccc4c5c(C#N)cc6c7c(ccc(c1c34)c75)C(=O)N(c1ccc(C(=O)c3ccccc3)cc1)C6=O)C(=O)N(c1ccc(C(=O)c3ccccc3)cc1)C2=O` [PDIPhCOPh-CN2, N,N′-bis(4-n-benzoylphenyl)-1,7-dicyanoperylene-3,4:9,10-bis(dicarboxiamide)], the “solubility in common organic solvents” value in data set [2] is given as “insoluble”. On the same count and under the same terms, with “N,N′-bis[4-(2′,3′,4′,5′,6′-pentafluorobiphenyl)]-1,7-dibromoperylene-3,4:9,10-bis(dicarboxiamide) [PDIPhPh^F-CN2]” the entry was “insoluble”.
